Laboratory results as given in patent US20100204219A1, “AROMATIC 1,4-DI-CARBOXYLAMIDES AND THEIR USE” (priority 2006, published 2010).

biological target: T1, βCat-BCL9 (beta-Catenin/BCL9-BCL9L interaction) (Homo sapiens, UniProt P35222); experiment: ELISA based protein-protein interaction assay, βCat-BCL9; assay type: binding; conditions: Example 1
T1 sequence (P35222 1-781): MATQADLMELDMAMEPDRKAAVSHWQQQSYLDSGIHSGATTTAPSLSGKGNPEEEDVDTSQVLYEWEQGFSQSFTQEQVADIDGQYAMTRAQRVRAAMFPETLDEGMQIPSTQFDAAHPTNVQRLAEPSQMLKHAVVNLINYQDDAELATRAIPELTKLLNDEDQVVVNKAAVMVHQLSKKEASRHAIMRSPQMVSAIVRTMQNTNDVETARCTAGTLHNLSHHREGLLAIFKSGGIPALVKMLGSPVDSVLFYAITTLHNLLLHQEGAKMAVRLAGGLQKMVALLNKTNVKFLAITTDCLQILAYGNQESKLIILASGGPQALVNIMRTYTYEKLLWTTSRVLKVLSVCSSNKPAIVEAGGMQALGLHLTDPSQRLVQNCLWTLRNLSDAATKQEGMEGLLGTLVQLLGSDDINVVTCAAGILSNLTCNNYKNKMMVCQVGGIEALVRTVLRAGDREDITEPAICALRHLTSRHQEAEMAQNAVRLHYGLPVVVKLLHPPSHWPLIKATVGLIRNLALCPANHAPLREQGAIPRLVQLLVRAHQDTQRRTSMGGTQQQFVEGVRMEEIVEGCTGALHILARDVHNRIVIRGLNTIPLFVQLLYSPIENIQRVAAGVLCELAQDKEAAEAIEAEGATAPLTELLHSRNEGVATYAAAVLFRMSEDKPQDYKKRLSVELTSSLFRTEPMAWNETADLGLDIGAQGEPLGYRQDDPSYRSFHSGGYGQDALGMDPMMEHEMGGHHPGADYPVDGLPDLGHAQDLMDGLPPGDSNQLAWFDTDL
Excerpt: cDNAs including the binding domains of Lgs and beta-Catenin were fused down-stream of glutathione-S-transferase (GST) cDNA in pGEX-4T inducible bacterial expression vector (Pharmacia). Similar recombinant DNA constructs were generated in the pET-32a(+) vector (Novagen) for expression of fusion protein containing the Thioredoxine-6His tag at their N-terminus. Fusion proteins were produced in BL21 bacteria (e.g. Stratagene) following manufacturer's recommendation.
To isolate the produced fusions protein, bacteria were ground in aluminum oxide (Sigma, A2039) and the resulting powder extracted in lysis buffer (140 mM NaCl, 10 mM Na2HPO4, 1.8 mM KH2PO4, 2.7 mM KCl, 1 mM EDTA, 1% Triton-X-100, 1 mM DTT and protease inhibitors) under rotation for 30 minutes. Supernatants were cleared by centrifugation then filtered on a 0.45 μm membrane before protein purification. For GST tagged protein, lysate were processed on glutathione agarose beads following manufacturer's recommendation (Amersham Pharmacia) and purified proteins eluted in 50 mM Tris-Cl, 10 mM reduced glutathione pH8.0. For thioredoxine-6His fusions, tagged proteins were purified from the lysate on a nickel chelating column (e.g. Hitrap chelating, G.E. Healthcare) using an HPLC system (e.g. Akta Prime, G.E. Healthcare) and eluted under increasing concentration of imidazole. The purified proteins solution was dialyzed against PBS before use. The quality of the preparations was checked by SDS-gel electrophoresis by standard methods well known by persons skilled in the art.
Compound preparation: Compounds can be prepared as 25 mM stock in DMSO and diluted in DMSO to reach final test concentrations of up to 100 μM. Final DMSO concentration in the assay is 5%.
100 μl of GST fusion protein (e.g. GST-βCatenin) diluted to the appropriate concentration in phosphate buffer saline are added per well to a 96 well plate with high protein binding capacity (e.g. Nunc Maxisorp) and placed at 4° C. overnight. The following day the liquid in the wells is discarded and 150 μl 3% bovine serum albumin (BSA) in PBS are added to each well and incubated at room temperature for 2 hours under moderate shaking. This solution is then discarded and each well washed twice with 200 μl PBS. After carefully discarding the second wash, a mixture of 5 μl compound dilution and 95 μl 6His fusion protein (e.g. 6His-Bcl9) diluted to the appropriate concentration in PBS is added to each well. The plate is then incubated for 1 hour at room temperature under moderate shaking. This protein solution is then discarded and the wells washed 3 times with 200 μl 0.1% Tween-20 solution in PBS. After carefully discarding the final wash, 100 μl of anti 6His antibody conjugated to the horse-radish peroxidase (e.g. Roche antibody 11965085001) at the appropriate dilution in 1% BSA in PBS is added to the wells and the plate incubated for 1 hour at room temperature under moderate shaking. This solution is then discarded and the wells washed 3 times with 200 μl 0.1% Tween-20 solution in PBS. After carefully discarding the final wash, 100 μl of HRP substrate […] (TMB) in solution (e.g. Sigma T0440) is added to the wells and the plate incubated up to 30 minutes in the dark at room temperature. The reaction is stopped by addition of 100 μl of 2N HCl to each well and the optical density is measured at 450 nm and 630 nm.

| Compound | IC50 [µM] |
| --- | --- |
| CC(C)(C)C(=O)Nc1ccc(-c2cnc(-c3ccc(NC(=O)C(C)(C)C)cc3)nc2)cc1 [TGC0011525] | > 10 |
| CC(=O)Nc1ccc(NC(=O)c2ccc(C(=O)Nc3ccc(NC(C)=O)cc3)cc2)cc1 [TGC0012292] | > 50 |
| O=C(Nc1ccc(F)c(F)c1)c1ccc(C(=O)Nc2ccc(F)c(F)c2)nc1 [TGC0012289] | > 50 |
| O=C(NCCc1ccccn1)c1ccc(C(=O)NCCc2ccccn2)nc1 [TGC0011455] | > 100 |
| COc1cc(C(=O)Nc2ccncc2)c(OC)cc1C(=O)Nc1ccncc1 [TGC0012291] | > 50 |
| CC(=O)Nc1cccc(NC(=O)c2ccc(C(=O)Nc3cccc(NC(C)=O)c3)nc2)c1 [TGC0011279] | > 100 |
| N#Cc1ccccc1NC(=O)c1ccc(C(=O)Nc2ccccc2C#N)cc1 [TGC0012300] | > 10 |
| O=C(COc1ccc(Br)cc1)Nc1ccc(-c2cnc(-c3ccc(NC(=O)COc4ccc(Br)cc4)cc3)nc2)cc1 [TGC0011565] | > 100 |
| CC(C)(C)C(=O)Nc1ccc(C(=O)Nc2ccc(-c3cnc(-c4ccc(NC(=O)c5ccc(NC(=O)C(C)(C)C)cc5)cc4)nc3)cc2)cc1 [TGC0011534] | > 100 |
| CCC(C)NC(=O)c1ccc(C(=O)NC(C)CC)nc1 (stereo not drawn) [TGC0011437] | > 50 |
| Cc1cc(NC(=O)c2ccc(C(=O)Nc3cc(C)on3)nc2)no1 [TG00011289] | > 50 |
| O=C(c1ccc(C(=O)N2CCCc3ccccc32)nc1)N1CCCc2ccccc21 [TGC0011425] | > 25 |
| O=C(Nc1ccc(-c2cnc(-c3ccc(NC(=O)c4ccco4)cc3)nc2)cc1)c1ccco1 [TGC0011531] | > 10 |
| COc1cc(NC(=O)c2ccc(C(=O)Nc3ccc(OC)c(OC)c3)nc2)cc(OC)c1 [TGC0012408] | 7 |
| O=C(Nc1cc(C(F)(F)F)ccc1Cl)c1ccc(C(=O)Nc2cc(C(F)(F)F)ccc2Cl)nc1 [TGC0011278] | > 100 |
| COc1ccc(CCNC(=O)c2cnc(C(=O)NCCc3ccc(OC)c(OC)c3)cn2)cc1OC [TGC0011592] | > 10 |
| COc1ccc(Cl)cc1NC(=O)c1ccc(C(=O)Nc2cc(Cl)ccc2OC)nc1 [TGC0011282] | > 100 |
| O=C(Nc1ccc(-c2cnc(-c3ccc(NC(=O)C(F)(F)F)cc3)nc2)cc1)C(F)(F)F [TGC0011526] | > 100 |
| O=C(c1ccc(C(=O)N2CCC(Cc3ccccc3)CC2)nc1)N1CCC(Cc2ccccc2)CC1 [TGC0011429] | > 25 |
| CC(CCc1ccccc1)NC(=O)c1ccc(C(=O)NC(C)CCc2ccccc2)nc1 (stereo not drawn) [TGC0011436] | > 10 |
| O=C(NCCc1ccccc1OC(F)(F)F)c1ccc(C(=O)NCCc2ccccc2OC(F)(F)F)nc1 [TGC0011454] | > 100 |
| Cc1cc(I)ccc1NC(=O)c1ccc(C(=O)Nc2ccc(I)cc2C)nc1 [TGC0011341] | > 10 |
| O=C(NCCC1=CCCCC1)c1ccc(C(=O)NCCC2=CCCCC2)nc1 [TGC0011435] | > 50 |
| Cc1ccccc1C(=O)Nc1ccc(-c2cnc(-c3ccc(NC(=O)c4ccccc4C)cc3)nc2)cc1 [TGC0011529] | > 100 |
| CC(C)(C)C(=O)Nc1cccc(C(=O)Nc2ccc(-c3cnc(-c4ccc(NC(=O)c5cccc(NC(=O)C(C)(C)C)c5)cc4)nc3)cc2)c1 [TGC0011527] | > 10 |
| COc1ccc(NC(=O)c2ccc(C(=O)Nc3ccc(NC(C)=O)cc3)cn2)cc1 [TGC0012409] | 5 |
| COc1ccc(OC)c(CCNC(=O)c2ccc(C(=O)NCCc3cc(OC)ccc3OC)nc2)c1 [TGC0011457] | > 100 |
| O=C(Nc1ccc2c(c1)OCO2)c1ccc(C(=O)Nc2ccc3c(c2)OCO3)nc1 [TGC0011431] | > 50 |
| N#Cc1cccc(NC(=O)c2ccc(C(=O)Nc3cccc(C#N)c3)cc2)c1 [TGC0012301] | > 50 |
| CCCCc1ccc(NC(=O)c2ccc(C(=O)Nc3ccc(CCCC)cc3)nc2)cc1 [TGC0011433] | > 50 |

Continued, values first:

| IC50 [µM] | Compound |
| --- | --- |
| > 50 | O=C(NCCc1ccc(F)cc1)c1ccc(C(=O)NCCc2ccc(F)cc2)nc1 [TGC0011447] |
| > 10 | O=C(NCCc1cccc(C(F)(F)F)c1)c1ccc(C(=O)NCCc2cccc(C(F)(F)F)c2)nc1 [TGC0011452] |
| > 100 | COc1cccc(CCNC(=O)c2ccc(C(=O)NCCc3cccc(OC)c3OC)nc2)c1OC [TGC0011456] |
| > 100 | CC(C)NC(=O)c1ccc(C(=O)NC(C)C)nc1 [TGC0011283] |
| > 10 | O=C(NCCc1ccc2c(c1)OCO2)c1ccc(C(=O)NCCc2ccc3c(c2)OCO3)nc1 [TGC0011448] |
| > 10 | O=C(Nc1ccc(-c2cnc(-c3ccc(NC(=O)c4ccccc4Cl)cc3)nc2)cc1)c1ccccc1Cl [TGC0011530] |
| > 25 | COc1ccc(CNC(=O)c2ccc(C(=O)NCc3ccc(OC)cc3)nc2)cc1 [TGC0011427] |
| 38 | COc1ccc(CCNC(=O)c2ccc(-c3ccc(C(=O)NCCc4ccc(OC)c(OC)c4)cn3)nc2)cc1OC [TGC0012281] |
| > 10 | CC(=O)c1cccc(NC(=O)c2ccc(C(=O)Nc3cccc(C(C)=O)c3)nc2)c1 [TGC0011338] |
| > 20 | O=C(NCCc1cccc(Cl)c1)c1ccc(C(=O)NCCc2cccc(Cl)c2)nc1 [TGC0011340] |
| > 50 | COc1cc(-c2ccc(NC(=O)c3cc(-c4ccc(C)o4)nc4ccccc34)c(OC)c2)ccc1NC(=O)c1cc(-c2ccc(C)o2)nc2ccccc12 [TGC0000161] |
| > 100 | O=C(NCc1ccccc1)c1ccc(C(=O)NCc2ccccc2)nc1 [TGC0011284] |
| > 10 | COc1ccccc1CCNC(=O)c1ccc(C(=O)NCCc2ccccc2OC)nc1 [TGC0011445] |
| > 100 | O=C(O)c1cccc(NC(=O)c2ccc(C(=O)Nc3cccc(C(=O)O)c3)cc2)c1 [TGC0012297] |
| > 100 | O=C(Nc1ccc(F)c(Cl)c1)c1ccc(C(=O)Nc2ccc(F)c(Cl)c2)nc1 [TGC0011287] |
| > 50 | O=C(NCC1CCCO1)c1ccc(C(=O)NCC2CCCO2)nc1 (stereo not drawn) [TGC0011424] |
| > 100 | COc1ccc(CCNC(=O)c2ccc(C(=O)NCCc3ccc(OC)c(Cl)c3)nc2)cc1Cl [TGC0011593] |
| > 50 | O=C(O)c1ccc(NC(=O)c2ccc(C(=O)Nc3ccc(C(=O)O)cc3)cc2)cc1 [TGC0012290] |
| > 10 | NC(=O)c1ccc(NC(=O)c2ccc(C(=O)Nc3ccc(C(N)=O)cc3)cc2)cc1 [TGC0012293] |
| > 10 | COc1cccc(CCNC(=O)c2ccc(C(=O)NCCc3cccc(OC)c3)nc2)c1 [TGC0011446] |
| > 10 | O=C(NCc1ccc(F)cc1)c1ccc(C(=O)NCc2ccc(F)cc2)nc1 [TGC0011337] |
| > 100 | O=C(Nc1ccccc1)c1ccc(C(=O)Nc2ccccc2)nc1 [TGC0011286] |
| > 100 | CCN(CC)c1ccc(NC(=O)c2ccc(C(=O)Nc3ccc(N(CC)CC)cc3)nc2)cc1 [TGC0011281] |
| > 100 | O=C(Nc1ccc(-c2cnc(-c3ccc(NC(=O)c4ccc(Br)cc4)cc3)nc2)cc1)c1ccc(Br)cc1 [TGC0011533] |
